# Data as given in BindingDB's records for doi:10.7270/Q2F47MJ9 (Emory University, 2007).
# Target: T1, Estrogen receptor (Homo sapiens, UniProt P03372)
# T1 sequence (P03372 whole entry): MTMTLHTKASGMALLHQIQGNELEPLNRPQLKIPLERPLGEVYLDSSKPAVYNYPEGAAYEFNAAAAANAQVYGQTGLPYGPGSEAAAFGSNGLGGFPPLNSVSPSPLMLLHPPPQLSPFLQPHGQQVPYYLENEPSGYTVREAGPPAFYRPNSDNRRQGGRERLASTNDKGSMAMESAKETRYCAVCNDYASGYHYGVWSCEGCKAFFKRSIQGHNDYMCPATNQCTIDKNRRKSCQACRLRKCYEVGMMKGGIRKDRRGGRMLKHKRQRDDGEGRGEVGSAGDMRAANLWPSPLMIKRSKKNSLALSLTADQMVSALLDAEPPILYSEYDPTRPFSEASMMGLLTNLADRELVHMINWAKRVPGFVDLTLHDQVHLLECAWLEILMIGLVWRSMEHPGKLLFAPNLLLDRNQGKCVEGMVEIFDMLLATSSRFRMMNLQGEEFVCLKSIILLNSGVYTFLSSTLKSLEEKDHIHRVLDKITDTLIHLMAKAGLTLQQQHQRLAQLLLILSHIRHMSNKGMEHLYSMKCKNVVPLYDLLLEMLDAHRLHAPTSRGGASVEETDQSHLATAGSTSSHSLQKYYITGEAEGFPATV
# Test: ERα coactivator recruitment enhancers – biochemical, TR-FRET, ERα LBD, dose response (AID 737)
row,SMILES,EC50
1,"CCOc1ccccc1C1c2c(-c3ccccc3)noc2N=C(N)C1C#N (stereo unspecified) [6-amino-4-(2-ethoxyphenyl)-3-phenyl-2,4-dihydroisoxazolo[5,4-b]pyridine-5-carbonitrile]",17.5 µM
2,"CCn1c(=NC(=O)c2ccc(-n3c(O)ccc3O)cc2)sc2c(OC)ccc(OC)c21 [4-[2,5-bis(oxidanylidene)pyrrolidin-1-yl]-N-(3-ethyl-4,7-dimethoxy-1,3-benzothiazol-2-ylidene)benzamide]",7.94 µM
3,CCOc1ccc(Cc2sc(Nc3ccccn3)nc2O)cc1 [5-(4-Ethoxy-benzyl)-2-[(Z)-pyridin-2-ylimino]-thiazolidin-4-one],25.1 µM

# Molecules with a lower EC50, results first:
row,EC50,SMILES
1,6.74 µM,"O=C1c2ccccc2C(=O)C1c1ccnc2ccccc12 [2-(1H-quinolin-4-ylidene)indane-1,3-quinone]"
2,6.52 µM,Cc1ccc(-c2n[nH]c(=S)n2NC=CCc2ccccc2[N+](=O)[O-])cc1
3,6.39 µM,"CCc1[nH]nc2c1C(c1cccc(OC(=O)N3CCOCC3)c1)C(C#N)C(=N)O2 (stereo unspecified) [3-(6-amino-5-cyano-3-ethyl-1,4-dihydropyrano[2,3-c]pyrazol-4-yl)phenyl morpholine-4-carboxylate]"
